Where a name gives a salt, the structure may show the parent alone.
These compounds were tested against T1, hmGluR5a receptor (Homo sapiens, UniProt P41594) (assay: Calcium flux assay (fura-2, glutamate-evoked [Ca2+]i)). Settings: hmGluR5a/L38-20 mouse fibroblast Ltk- cells; 10 μM glutamate (EC80); read-out: mGluR5 inhibitory activity, IC50.
T1 construct: expressed in transfected cells; host or cells: mouse fibroblast Ltk- cells (hmGluR5a/L38-20 cell line)
Type: cell-based
Procedure: The compounds of this invention were tested against the hmGluR5a receptor stably expressed in mouse fibroblast Ltk-cells (the hmGluR5a/L38-20 cell line) and activity was detected by changes in [Ca^++]i, measured using the fluorescent Ca^++-sensitive dye, fura-2. InsP assays were performed in mouse fibroblast Ltk^− cells (LM5a cell line) stably expressing hmGluR5a. The assays described in International Patent Publication WO 0116121 can be used.
The activity of compounds was examined against the hmGluR5a receptor stably expressed in mouse fibroblast Ltk− cells (the hmGluR5a/L38 cell line). See generally Daggett et al., Neuropharmacology 34:871-886 (1995). Receptor activity was detected by changes in intracellular calcium ([Ca^2+]i, measured using the fluorescent calcium-sensitive dye, fura-2. The hmGluR5a/L38-20 cells were plated onto 96-well plates, and loaded with 3 µM fura-2 for 1 h. Unincorporated dye was washed from the cells, and the cell plate was transferred to a 96-channel fluorimeter (SIBIA-SAIC, La Jolla, Calif.) which is integrated into a fully automated plate handling and liquid delivery system. Cells were excited at 350 and 385 nm with a xenon source combined with optical filters. Emitted light was collected from the sample through a dichroic mirror and a 510 nm interference filter and directed into a cooled CCD camera (Princeton Instruments). Image pairs were captured approximately every is, and ratio images were generated after background subtraction. After a basal reading of 20s, an EC80 concentration of glutamate (10 μM) was added to the well, and the response evaluated for another 60s. The glutamate-evoked increase in [Ca′]i in the presence of the screening compound was compared to the response of glutamate alone (the positive control).

T1 sequence (P41594 21-1180 isoform P41594-2 limits assumed): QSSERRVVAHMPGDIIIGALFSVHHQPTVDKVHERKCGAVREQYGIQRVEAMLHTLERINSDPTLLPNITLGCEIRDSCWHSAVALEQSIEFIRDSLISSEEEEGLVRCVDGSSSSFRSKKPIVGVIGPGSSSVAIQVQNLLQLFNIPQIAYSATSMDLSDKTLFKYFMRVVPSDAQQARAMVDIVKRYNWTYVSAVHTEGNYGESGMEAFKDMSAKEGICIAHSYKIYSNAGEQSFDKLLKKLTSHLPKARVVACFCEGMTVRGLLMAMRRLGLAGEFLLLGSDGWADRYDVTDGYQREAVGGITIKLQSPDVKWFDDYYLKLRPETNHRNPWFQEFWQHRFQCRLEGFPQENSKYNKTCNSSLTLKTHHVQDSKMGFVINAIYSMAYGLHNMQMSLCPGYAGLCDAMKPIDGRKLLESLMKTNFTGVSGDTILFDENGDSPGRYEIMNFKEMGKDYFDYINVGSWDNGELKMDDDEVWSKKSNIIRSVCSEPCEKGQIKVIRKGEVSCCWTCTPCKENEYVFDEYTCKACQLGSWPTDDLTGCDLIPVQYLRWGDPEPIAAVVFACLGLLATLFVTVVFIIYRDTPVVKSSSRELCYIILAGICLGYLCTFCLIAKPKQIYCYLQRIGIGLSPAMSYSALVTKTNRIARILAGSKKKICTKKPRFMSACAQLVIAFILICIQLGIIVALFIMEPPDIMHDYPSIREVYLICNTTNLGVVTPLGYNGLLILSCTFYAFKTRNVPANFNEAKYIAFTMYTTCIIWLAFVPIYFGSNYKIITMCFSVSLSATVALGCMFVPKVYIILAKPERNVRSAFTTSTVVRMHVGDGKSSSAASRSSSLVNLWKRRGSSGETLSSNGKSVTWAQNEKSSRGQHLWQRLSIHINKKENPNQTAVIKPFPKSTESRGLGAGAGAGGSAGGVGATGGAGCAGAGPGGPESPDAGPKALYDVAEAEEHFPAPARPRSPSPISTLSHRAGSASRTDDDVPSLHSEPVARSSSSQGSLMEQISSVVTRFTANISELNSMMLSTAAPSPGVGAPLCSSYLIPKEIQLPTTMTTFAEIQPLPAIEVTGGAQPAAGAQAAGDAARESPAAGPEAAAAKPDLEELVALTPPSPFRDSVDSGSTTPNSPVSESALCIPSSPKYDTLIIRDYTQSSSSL

Row | Structure (SMILES) | IC50 [nM]
1 | Clc1cc(-c2cccnc2)cc(-n2cc(-c3ccccn3)cn2)c1 [Example 1, 2-[1-(3-chloro-5-pyridin-3-ylphenyl)-1H-pyrazol-4-yl]pyridine] | < 2000
2 | Fc1cc(-c2nn[nH]n2)cc(-n2ccc(-c3ccccn3)n2)c1 [Example 2, 2-{1-[3-fluoro-5-(2H-tetraazol-5-yl)phenyl]-1H-pyrazol-3-yl}pyridine] | < 2000
3 | Clc1cc(-c2cccnc2)cc(-c2cnn(-c3ccccn3)c2)c1 [Example 3, 2-[4-(3-chloro-5-pyridin-3-ylphenyl)-1H-pyrazol-1-yl]pyridine] | < 2000
4 | c1ccc(-c2cnn(-c3cccc(-c4cccnc4)c3)c2)nc1 [Example 4] | < 2000
5 | c1ccc(-c2cccc(-n3cc(-c4ccccn4)cn3)c2)nc1 [Example 5] | < 2000
6 | c1ccc(-c2cccc(-n3cc(-c4ccccn4)cn3)c2)cc1 [Example 6] | < 2000
7 | COc1cc(-c2cnn(-c3ccccn3)c2)ccc1-c1ccccn1 [Example 7] | < 2000
8 | c1ccc(-c2cnn(-c3cccc(-c4cccnc4)n3)c2)nc1 [Example 8, 6-(4-pyridin-2-yl-1H-pyrazol-1-yl)-2,3′-bipyridine] | > 2000
9 | c1ccc(-c2ccc(-n3ccc(-c4ccccn4)n3)cc2)cc1 [Example 9, 2-(1-biphenyl-4-yl-1H-pyrazol-3-yl)-pyridine hydrochloride] | > 2000
10 | c1ccc(-c2cnn(-c3cccc(-c4ccncc4)c3)c2)nc1 [Example 10] | > 2000
11 | c1ccc(-c2ccc(-n3cc(-c4ccccn4)cn3)cc2)nc1 [Example 11] | > 2000
12 | c1ccc(-c2cnn(-c3ccc(-c4cccnc4)cc3)c2)nc1 [Example 12] | > 2000
13 | Cc1ccncc1-c1cc(F)cc(-c2cnn(-c3ccccn3)c2)c1 [Example 13] | > 2000
14 | Clc1cc(-c2cnn(-c3ccccn3)c2)cc(-n2ccc3ccncc32)c1 [Example 14] | > 2000
15 | Fc1cc(-c2cnn(-c3ccccn3)c2)ccc1-c1ccccn1 [Example 15] | > 2000
16 | c1ccc(-c2ccc(-n3cc(-c4ccccn4)cn3)cc2)cc1 [Example 16] | > 2000
17 | c1ccc(-c2ccccc2-n2cc(-c3ccccn3)cn2)cc1 [Example 17] | > 2000
18 | c1ccc(-c2ccccc2-n2cc(-c3ccncn3)cn2)cc1 [Example 18] | > 2000
19 | c1ccc(-c2cccc(-n3cc(-c4ccncn4)cn3)c2)cc1 [Example 19] | > 2000
20 | c1ccc(-c2cnn(-c3ccc(C4CCCCC4)cc3)c2)nc1 [Example 20] | > 2000

Next, values leading:

Row | IC50 [nM] | Structure (SMILES)
21 | > 2000 | c1cc(-c2cnn(-c3ccc(C4CCCCC4)cc3)c2)ncn1 [Example 21]
22 | > 2000 | c1ccc2nc(-c3cnn(-c4ccc(C5CCCCC5)cc4)c3)ccc2c1 [Example 22]
23 | > 2000 | c1ccc2nc(-c3cnn(-c4ccc(C5CCCCC5)cc4)c3)cnc2c1 [Example 23]
24 | > 2000 | Cc1cc(-c2cnn(-c3ccc(C4CCCCC4)cc3)c2)nc2ccccc12 [Example 24]
25 | > 2000 | c1ccc(-c2ccc(-n3cc(-c4ccncn4)cn3)cc2)cc1 [Example 25]
26 | > 2000 | Cc1cc(-c2cnn(-c3ccc(N4CCNC4=O)cc3)c2)nc2ccccc12 [Example 26]
27 | > 2000 | CN1CCN(c2ccc(-n3cc(-c4ccncn4)cn3)cc2)C1=O [Example 27]
28 | > 2000 | CN1CCN(c2ccc(-n3cc(-c4ccc5ccccc5n4)cn3)cc2)C1=O [Example 28]
29 | > 2000 | CN1CCN(c2ccc(-n3cc(-c4cnc5ccccc5n4)cn3)cc2)C1=O [Example 29]
30 | > 2000 | Cc1cc(-c2cnn(-c3ccc(N4CCN(C)C4=O)cc3)c2)nc2ccccc12 [Example 30]
31 | > 2000 | c1ccc(-c2cccc(-n3cc(-c4ccccn4)cn3)c2)cc1 [Example 31]
32 | > 2000 | c1ccc(-c2cccc(-c3cnn(-c4ccccn4)c3)c2)cc1 [Example 33]

— US20060194807A1, “Di-aryl substituted pyrazole modulators of metabotropic glutamate receptor-5” (priority 2003, published 2006)
